Assay results: US20230404929A1, “Intradermal Delivery of Extracellular Vesicle-Encapsulated Curcumin Using Dissolvable Microneedle Arrays” (priority 2020, published 2023)

Columns and labels:
[1] = in vitro stability of curcumin in phosphate-buffered saline at 37° C.; format: physicochemical
[2] = system: psoriasis-like inflammation; assay: imiquimod psoriasis-like skin inflammation in mice; format: in vivo; conditions: skin cross-section
Excerpt: The efficacy of dMNA-delivered CA-EVs in simultaneously blocking and reversing inflammation was studied. The treatments included topical, intradermal, and dMNA application of CA-EVs, naïve EVs, and naked curcumin.

curcumin remaining stable ([1]; 3 hours): 5% | degradation of curcumin over time ([1]; seven-day study): degraded entirely within one day
SMILES: COc1cc(/C=C/C(=O)CC(=O)/C=C/c2ccc(O)c(OC)c2)ccc1O [naked curcumin, curcumin]
therapeutic effect on imiquimod-induced skin inflammation [2]: negligible effect
